± gives the expanded uncertainty stated by the source.
Columns and labels:
[1] = Crystal; DTA
[2] = Molar enthalpy of transition or fusion; details: Crystal; DSC

- Normal melting temperature [1]: 305.5 ± 1 °C
- Molar enthalpy of transition or fusion [2]: 9.13 ± 0.263 kcal/mol
Compound: Oc1cc(O)c2cc1Cc1cc(c(O)cc1O)Cc1cc(c(O)cc1O)Cc1cc(c(O)cc1O)C2

Source: the NIST ThermoML archive (doi:10.1021/je9005097)
